Where two headings read alike, the source gives them in different places.
Experiments:
ArnA_DH [1] = molecular target: T1, ArnA_DH (Escherichia coli, UniProt P77398); assay: biochemical
ArnA_DH [2] = molecular target: T1, ArnA_DH; conditions: for Tm (melting temperature of ArnA_DH with ligand): no ligand Tm = 318.4 ± 0.03 K
ArnA_DH_N492A [3] = molecular target: T2, ArnA_DH_N492A (Escherichia coli, UniProt P77398, N492A); assay: NADH binding; format: biochemical; conditions: concentrations as high as 10 mM
T2 sequence (P77398 314-660 N492A): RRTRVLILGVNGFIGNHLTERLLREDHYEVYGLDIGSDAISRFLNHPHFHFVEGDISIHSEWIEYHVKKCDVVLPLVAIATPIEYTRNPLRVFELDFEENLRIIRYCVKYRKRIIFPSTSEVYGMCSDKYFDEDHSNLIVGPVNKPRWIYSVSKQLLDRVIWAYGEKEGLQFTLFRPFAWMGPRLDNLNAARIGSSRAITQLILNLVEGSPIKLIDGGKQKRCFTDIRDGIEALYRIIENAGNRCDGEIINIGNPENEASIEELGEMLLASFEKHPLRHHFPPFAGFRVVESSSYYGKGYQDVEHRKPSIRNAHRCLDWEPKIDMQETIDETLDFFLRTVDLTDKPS

ArnA_DH_N492A [4] = molecular target: T2, ArnA_DH_N492A; assay: Thermal stability shift assay for ligand binding to N492A mutant

O=c1ccn([C@@H]2O[C@H](COP(=O)(O)O)[C@@H](O)[C@H]2O)c(=O)[nH]1 [UMP, uridine monophosphate]
Kd (ArnA_DH [1]): 594 ± 135 µM
Tm (melting temperature of ArnA_DH with ligand) (ArnA_DH [2]; 1 mM ligand): 320.6 ± 0.02 K

O=c1ccn([C@@H]2O[C@H](COP(=O)(O)OP(=O)(O)O[C@H]3OC[C@@H](O)[C@H](O)[C@H]3O)[C@@H](O)[C@H]2O)c(=O)[nH]1 [UDP-xylose]
Kd (ArnA_DH [1]): 633 ± 116 µM
Tm (melting temperature of ArnA_DH with ligand) (ArnA_DH [2]; 1 mM ligand): 320.0 ± 0.03 K

O=C(O)[C@H]1O[C@H](OP(=O)(O)OP(=O)(O)OC[C@H]2O[C@@H](n3ccc(=O)[nH]c3=O)[C@H](O)[C@@H]2O)[C@H](O)[C@@H](O)[C@@H]1O [UDP-GlcA, UDP-glucuronic acid]
Kd (ArnA_DH [1]): 22 ± 5 µM
UDP-GlcA-induced conformational change of ArnA_DH_N492A (intrinsic NADH fluorescence) (ArnA_DH_N492A [3]): little change in the intrinsic NADH fluorescence
Kd (ArnA_DH_N492A [4]): 36 ± 7 µM

O=C(O)[C@H]1O[C@H](OP(=O)(O)O)[C@H](O)[C@@H](O)[C@@H]1O [GlcA-1P, glucuronic acid-1-phosphate]
ligand binding by thermal stability shift assay (ArnA_DH [2]; 1 mM and 10 mM ligand): undetectable
Tm (melting temperature of ArnA_DH with ligand) (ArnA_DH [2]; 1 mM ligand): 318.9 ± 0.02 K
Tm (melting temperature of ArnA_DH with ligand) (ArnA_DH [2]; 10 mM ligand): 318.4 ± 0.03 K

Reference: paper PMC10914316 (Biochemistry, 2023)
